From patent publication US20260198497A1, “A BENZENE RING-SUBSTITUTED PYRIMIDINECARBOXYLIC ACID COMPOUND, PREPARATION METHOD THEREFOR, HERBICIDAL COMPOSITION AND APPLICATION THEREOF” (QINGDAO KINGAGROOT CHEMICAL COMPOUND CO., LTD., priority 2023, published 2026)

The molecules below were run on Veronica (assay: Post-emergence test on weeds). Settings: 30 g a.i./ha, 3 weeks after application.
Assay type: in vivo
Design: key: 0 = no effect, 9 = completely dead (levels by growth control rate)
Source text: The criteria for activity levels of plant damage (i.e., growth control rate) are as follows: • Level 9: completely dead; • Level 8: growth control rate is greater than or equal to 90% and less than 100%; • Level 7: growth control rate is greater than or equal to 80% and less than 90%; • Level 6: growth control rate is greater than or equal to 70% and less than 80%; • Level 5: growth control rate is greater than or equal to 50% and less than 70%; • Level 4: growth control rate is greater than or equal to 30% and less than 50%; • Level 3: growth control rate is greater than or equal to 20% and less than 30%; • Level 2: growth control rate is greater than or equal to 10% and less than 20%; • Level 1: growth control rate is less than 10%; • Level 0: no effect.
The above growth control rates are fresh weight control rates.
Monocotyledonous and dicotyledonous weed seeds (Descurainia sophia, Capsella bursa-pastoris, Abutilon theophrasti, Galium spurium, Stellaria media, Lithospermum arvense, Rorippa indica, Alopecurus aequalis, Alopecurus japonicus, Eleusine indica, Beckmannia syzigachne, Sclerochloa dura, Erigeron canadensis, Phleum paniculatum, Veronica, Bromus japonicus, Aegilops tauschii, Phalaris arundinacea, Amaranthus retroflexus, Chenopodium, Commelina communis, Cichorium endivia, Convolvulus arvensis, Cirsium arvense, Solanum nigrum, Acalypha australis, Digitaria sanguinalis, Echinochloa crusgalli, Setaria viridis, Setaria pumila, Leptochloa chinensis, Monochoria vaginalis, Sagittaria trifolia, Schoenoplectiella juncoides, Cyperus rotundus, Cyperus iria, Cyperus difformis, Fimbristylis, Portulaca oleracea, Xanthium sibiricum, Ipomoea nil, Eschenbachia japonica, etc.) and major crop seeds (wheat, maize, paddy rice, soybean, cotton, oilseed rape, millet, sorghum, potato, sesame, castor plant, Chinese cabbage, radish, etc.) were placed in plastic pots filled with soil and then covered with 0.5-2 cm of soil to allow them to grow in a favorable greenhouse environment. Two weeks after sowing, the test plants were treated at the stage of 2-3 leaves. The test compounds of the present invention were individually dissolved with acetone, then added with Tween® 80, with 1.5 L/ha of methyl oleate emulsifiable concentrate as a synergist, diluted into solution of a certain concentration using a certain amount of water, and sprayed to plants using a spray tower. After drug application, the experimental results on weeds were collected after 3 weeks of cultivation in a greenhouse. The compounds were applied at 120, 60, 30, and 15 g a.i./ha in triplicate, and the results were averaged.

SMILES	activity level of plant damage (growth control rate), Veronica
COc1c(N)nc(-c2ccc(C(F)(F)F)c(OC)c2F)nc1C(=O)O [Compound 1]	9
CCOCCOC(=O)c1nc(-c2ccc(C(F)(F)F)c(OC)c2F)nc(N)c1OC [Compound 21]	9
CCCOCCOC(=O)c1nc(-c2ccc(C(F)(F)F)c(OC)c2F)nc(N)c1OC [Compound 22]	9
COCCOCCOC(=O)c1nc(-c2ccc(C(F)(F)F)c(OC)c2F)nc(N)c1OC [Compound 23]	9
CCCOC(=O)c1nc(-c2ccc(C(F)(F)F)c(OC)c2F)nc(N)c1OC [Compound 25]	9
COc1c(N)nc(-c2ccc(C(F)(F)F)c(OC)c2F)nc1C(=O)OC(C)C [Compound 26]	9
C=CCOC(=O)c1nc(-c2ccc(C(F)(F)F)c(OC)c2F)nc(N)c1OC [Compound 52]	9
C#CCOC(=O)c1nc(-c2ccc(C(F)(F)F)c(OC)c2F)nc(N)c1OC [Compound 57]	9
COc1c(N)nc(-c2ccc(C(F)(F)F)c(OC)c2F)nc1C(=O)OCCF [Compound 58]	9
COc1c(N)nc(-c2ccc(C(F)(F)F)c(OC)c2F)nc1C(=O)OCCCl [Compound 59]	9
COc1c(N)nc(-c2ccc(C(F)(F)F)c(OC)c2F)nc1C(=O)OCCBr [Compound 60]	9
COc1c(N)nc(-c2ccc(C(F)(F)F)c(OC)c2F)nc1C(=O)OCC(F)F [Compound 61]	9
COc1c(N)nc(-c2ccc(C(F)(F)F)c(OC)c2F)nc1C(=O)OCCCF [Compound 63]	9
COc1c(N)nc(-c2ccc(C(F)(F)F)c(OC)c2F)nc1C(=O)OCCC(F)(F)F [Compound 64]	9
COCOC(=O)c1nc(-c2ccc(C(F)(F)F)c(OC)c2F)nc(N)c1OC [Compound 72]	9
COc1c(N)nc(-c2ccc(C(F)(F)F)c(OC)c2F)nc1C(=O)OCCO [Compound 73]	9
COc1c(N)nc(-c2ccc(C(F)(F)F)c(OC)c2F)nc1C(=O)OCC(OC)OC [Compound 76]	9
CCOC(=O)COC(=O)c1nc(-c2ccc(C(F)(F)F)c(OC)c2F)nc(N)c1OC [Compound 81]	9
COC(=O)C(C)OC(=O)c1nc(-c2ccc(C(F)(F)F)c(OC)c2F)nc(N)c1OC (centres unmarked) [Compound 82]	9
CCOC(=O)OC(C)OC(=O)c1nc(-c2ccc(C(F)(F)F)c(OC)c2F)nc(N)c1OC (centres unmarked) [Compound 93]	9
COc1c(N)nc(-c2ccc(C(F)(F)F)c(OC)c2F)nc1C(=O)OCCSC [Compound 100]	9
COc1c(N)nc(-c2ccc(C(F)(F)F)c(OC)c2F)nc1C(=O)OCC#N [Compound 103]	9
COc1c(N)nc(-c2ccc(C(F)(F)F)c(OC)c2F)nc1C(=O)OCC1CC1 [Compound 117]	9
COc1c(N)nc(-c2ccc(C(F)(F)F)c(OC)c2F)nc1C(=O)OC1CCCC1 [Compound 119]	9
COc1c(N)nc(-c2ccc(C(F)(F)F)c(OC)c2F)nc1C(=O)OCC1CCCO1 (centres unmarked) [Compound 121]	9

SMILES	activity level of plant damage (growth control rate), Veronica
COc1c(N)nc(-c2ccc(C(F)(F)F)c(OC)c2F)nc1C(=O)Oc1ccccc1 [Compound 129]	9
COc1c(N)nc(-c2ccc(C(F)(F)F)c(OC)c2F)nc1C(=O)OCc1ccccc1 [Compound 130]	9
COc1c(N)nc(-c2ccc(C(F)(F)F)c(OC)c2F)nc1C(=O)OCc1ccccc1F [Compound 133]	9
COc1cc(-c2nc(N)c(OC)c(C(=O)OCc3ccccn3)n2)ccc1C(F)(F)F [Compound 150]	9
COc1cc(-c2nc(N)c(OC)c(C(=O)OCc3cccnc3)n2)ccc1C(F)(F)F [Compound 151]	9
COc1cc(-c2nc(N)c(OC)c(C(=O)OCc3ccncc3)n2)ccc1C(F)(F)F [Compound 152]	9
COc1cc(-c2nc(N)c(OC)c(C(=O)SC)n2)ccc1C(F)(F)F [Compound 155]	9
CCSC(=O)c1nc(-c2ccc(C(F)(F)F)c(OC)c2)nc(N)c1OC [Compound 156]	9
COCCSC(=O)c1nc(-c2ccc(C(F)(F)F)c(OC)c2F)nc(N)c1OC [Compound 190]	9
COc1c(N)nc(-c2ccc(C(F)(F)F)c(OC)c2F)nc1C(=O)OCC(C)F (centres unmarked) [Compound 191]	9
COc1c(N)nc(-c2ccc(C(F)(F)F)c(OC)c2F)nc1C(=O)ON=C(C)C(C)(C)C [Compound 192]	9
COc1c(N)nc(-c2ccc(C(F)(F)F)c(OC)c2F)nc1C(=O)OCc1ccn(C)n1 [Compound 193]	9
COc1c(N)nc(-c2ccc(C(F)(F)F)c(OC)c2F)nc1C(=O)[O-].[K+] [Compound 199]	9
COc1c(N)nc(-c2ccc(C(F)(F)F)c(OC)c2F)nc1C(=O)[O-].[Na+] [Compound 200]	9
COC(=O)c1nc(-c2ccc(Br)c(OC)c2F)nc(N)c1OC [Compound 201]	9
CCOC(=O)c1nc(-c2ccc(Br)c(OC)c2F)nc(N)c1OC [Compound 202]	9
CCCOC(=O)c1nc(-c2ccc(Br)c(OC)c2F)nc(N)c1OC [Compound 203]	9
COc1c(N)nc(-c2ccc(Br)c(OC)c2F)nc1C(=O)OC(C)C [Compound 204]	9
COc1c(N)nc(-c2ccc(Br)c(OC)c2F)nc1C(=O)OCC(F)F [Compound 205]	9
COc1c(N)nc(-c2ccc(Br)c(OC)c2F)nc1C(=O)OCC#N [Compound 209]	9
COc1c(N)nc(-c2ccc(Br)c(OC)c2F)nc1C(=O)ON=C(C)C [Compound 210]	9
COCCOC(=O)c1nc(-c2ccc(Br)c(OC)c2F)nc(N)c1OC [Compound 212]	9
COc1c(N)nc(-c2ccc(Br)c(OC)c2F)nc1C(=O)OCCSC [Compound 214]	9
COc1c(N)nc(-c2ccc(Br)c(OC)c2F)nc1C(=O)OCC1CCCO1 (centres unmarked) [Compound 218]	9
COc1c(N)nc(-c2ccc(Br)c(OC)c2F)nc1C(=O)OCc1ccccc1 [Compound 219]	9
